# Measured values: PubChem BioAssay AID743349 (Broad Institute, 2014)
# Calls of active or inactive are those of the source. How the calls were made is not given here.
# Test system: M. tuberculosis wild type plus biotin, growth inhibition
# Assay: growth inhibition of wild-type M. tuberculosis, plus biotin, BioA project, dry powder (AID 743349)
row,Structure (SMILES),IC90
1,CN1c2ccc(-c3ccc(F)cc3)cc2[C@H]2[C@H](CCN2C(=O)Nc2ccc(F)cc2)[C@H]1CO,> 50 µM (inactive)
2,CN(C)C(=O)c1ccc(N2CCN(C(=O)c3ccc4c(c3)OCO4)CC2)cc1,> 50 µM (inactive)
3,CCC(=O)N1CC[C@@H]2[C@@H](CO)N(C)c3ccc(-c4ccc(F)cc4)cc3[C@@H]21,> 50 µM (inactive)
4,CC(=O)c1ccc(N2CCN(C(=O)c3ccccc3Cl)CC2)cc1,> 50 µM (inactive)
5,CN1c2ccc(-c3ccc(F)cc3)cc2[C@H]2[C@H](CCN2C(=O)Cc2cccnc2)[C@H]1CO,> 50 µM (inactive)
6,CC(=O)c1ccc(NCCNC(=O)c2ccc3c(c2)OCO3)cc1,> 50 µM (inactive)
7,CN1c2ccc(-c3cccc(F)c3)cc2[C@H]2[C@H](CCN2C(=O)Cc2ccccc2)[C@H]1CO,> 50 µM (inactive)
8,COc1cccc(NC(=O)N2CC[C@@H]3[C@@H](CO)N(C)c4ccc(-c5cccc(F)c5)cc4[C@@H]32)c1,> 50 µM (inactive)
9,COCC(=O)N1CC[C@@H]2[C@@H](CO)N(C)c3ccc(-c4cccc(F)c4)cc3[C@@H]21,> 50 µM (inactive)
10,COC(=O)CCCCCCC(=O)N1CC[C@@H]2[C@@H](CO)N(C)c3ccc(-c4cccc(F)c4)cc3[C@@H]21,> 50 µM (inactive)
11,CC(C)NC(=O)N1CC[C@@H]2[C@@H](CO)N(C)c3ccc(-c4cccc(F)c4)cc3[C@@H]21,> 50 µM (inactive)
12,CC(=O)c1ccc(N2CCN(C(=O)c3ccc4c(c3)OCO4)[C@H](C)C2)cc1,> 50 µM (inactive)
13,COc1ccc(NC(=O)N2CC[C@@H]3[C@@H](CO)N(C)c4ccc(-c5ccc(F)cc5)cc4[C@@H]32)cc1,> 50 µM (inactive)
14,COc1ccccc1C(=O)N1CCN(c2ccc(C(C)=O)cc2)CC1,> 50 µM (inactive)
15,CN1c2ccc(-c3cccc(F)c3)cc2[C@H]2[C@H](CCN2C(=O)c2ccc3c(c2)OCO3)[C@@H]1CO,> 50 µM (inactive)
16,CCCCCCCC(=O)N1CC[C@@H]2[C@@H](CO)N(C)c3ccc(-c4cccc(F)c4)cc3[C@@H]21,> 50 µM (inactive)
17,COc1ccccc1NC(=O)N1CC[C@@H]2[C@@H](CO)N(C)c3ccc(-c4ccc(F)cc4)cc3[C@@H]21,> 50 µM (inactive)

row,Structure (SMILES),IC90
1,CN1c2ccc(-c3ccc(F)cc3)cc2[C@H]2[C@H](CCN2C(=O)Nc2cc(F)ccc2F)[C@H]1CO,> 50 µM (inactive)
2,CN1c2ccc(-c3cccc(F)c3)cc2[C@H]2[C@H](CCN2C(=O)Cc2cccnc2)[C@H]1CO,> 50 µM (inactive)
3,CNS(=O)(=O)c1ccc(N2CCN(C(=O)c3ccc4c(c3)OCO4)CC2)cc1,> 50 µM (inactive)
4,CN1c2ccc(-c3cccc(F)c3)cc2[C@@H]2[C@@H](CCN2C(=O)c2ccc3c(c2)OCO3)[C@@H]1CO,> 50 µM (inactive)
5,CN1c2ccc(-c3cccc(F)c3)cc2[C@@H]2[C@@H](CCN2C(=O)c2ccc3c(c2)OCO3)[C@H]1CO,> 50 µM (inactive)
6,CN1c2ccc(-c3ccc(F)cc3)cc2[C@H]2[C@H](CCN2C(=O)Cc2ccccn2)[C@H]1CO,> 50 µM (inactive)
7,CN1c2ccc(-c3cccc(F)c3)cc2[C@H]2[C@H](CCN2C(=O)CCCCCCC(=O)O)[C@H]1CO,> 50 µM (inactive)
8,CC(=O)c1ccc(N2CC3(CN(C(=O)c4ccc5c(c4)OCO5)C3)C2)cc1,> 50 µM (inactive)
9,COc1ccccc1NC(=O)N1CC[C@@H]2[C@@H](CO)N(C)c3ccc(-c4cccc(F)c4)cc3[C@@H]21,> 50 µM (inactive)
10,CC(=O)c1ccc(N2CCN(C(=O)c3ccc4c(c3)OCO4)CC2)cc1,> 50 µM (inactive)
11,CN1c2ccc(-c3cccc(F)c3)cc2[C@H]2[C@H](CCN2C(=O)Nc2ccccc2F)[C@H]1CO,> 50 µM (inactive)
12,CC(=O)c1ccc(N2CCN(C(=O)c3ccccc3F)CC2)cc1,> 50 µM (inactive)
13,CNC(=O)c1ccc(N2CCN(C(=O)c3ccc4c(c3)OCO4)CC2)cc1,> 50 µM (inactive)
14,CCCNC(=O)N1CC[C@@H]2[C@@H](CO)N(C)c3ccc(-c4ccc(F)cc4)cc3[C@@H]21,> 50 µM (inactive)
15,CN1c2ccc(-c3cccc(F)c3)cc2[C@H]2[C@H](CCN2C(=O)CCCCCCN)[C@H]1CO,> 50 µM (inactive)
16,CC(C)NC(=O)N1CC[C@@H]2[C@@H](CO)N(C)c3ccc(-c4ccc(F)cc4)cc3[C@@H]21,> 50 µM (inactive)
17,COc1ccc(NC(=O)N2CC[C@@H]3[C@@H](CO)N(C)c4ccc(-c5cccc(F)c5)cc4[C@@H]32)cc1,> 50 µM (inactive)
